Assay results taken from article PMC10359460, “Structural basis of the T4 bacteriophage primosome assembly and primer synthesis” (Nature Communications, 2023).

T1: T4 primosome (gp41 helicase-gp61 primase) (Tequatrovirus T4, UniProt P04530)
T1 construct: gene 41; full-length proteins, intein fusions self-cleaved, E. coli BL21(DE3); 6:1 helicase:primase on ssDNA; with DNA primase
T1 sequence (P04530 1-475): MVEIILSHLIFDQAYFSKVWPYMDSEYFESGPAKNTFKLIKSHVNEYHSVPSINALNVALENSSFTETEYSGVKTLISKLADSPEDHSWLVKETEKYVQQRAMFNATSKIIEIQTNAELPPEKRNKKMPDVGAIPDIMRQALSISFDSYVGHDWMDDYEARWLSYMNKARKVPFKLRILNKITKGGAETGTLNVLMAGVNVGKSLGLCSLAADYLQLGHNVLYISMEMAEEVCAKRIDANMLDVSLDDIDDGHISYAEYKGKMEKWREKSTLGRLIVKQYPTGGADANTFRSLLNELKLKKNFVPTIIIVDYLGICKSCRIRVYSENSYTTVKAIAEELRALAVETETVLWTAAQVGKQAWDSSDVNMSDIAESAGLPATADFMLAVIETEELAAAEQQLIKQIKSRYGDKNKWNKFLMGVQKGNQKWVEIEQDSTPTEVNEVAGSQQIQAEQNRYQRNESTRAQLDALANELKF
T1 sequence (P04520 1-342 partner): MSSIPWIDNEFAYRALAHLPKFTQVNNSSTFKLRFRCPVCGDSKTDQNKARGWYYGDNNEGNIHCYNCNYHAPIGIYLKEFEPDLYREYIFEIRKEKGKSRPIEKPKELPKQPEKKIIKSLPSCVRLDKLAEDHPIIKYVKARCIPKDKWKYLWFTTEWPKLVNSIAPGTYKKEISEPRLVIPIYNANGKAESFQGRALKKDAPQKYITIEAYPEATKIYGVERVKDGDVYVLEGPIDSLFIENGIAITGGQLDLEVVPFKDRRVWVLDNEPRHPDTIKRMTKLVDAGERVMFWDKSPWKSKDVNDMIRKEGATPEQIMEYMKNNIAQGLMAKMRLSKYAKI

T2: gp41 helicase (Tequatrovirus T4, UniProt P04530)
T2 construct: gene 41; full-length, intein fusion self-cleaved, E. coli BL21(DE3); homohexamer, without or with ssDNA
T2 sequence (P04530 1-475): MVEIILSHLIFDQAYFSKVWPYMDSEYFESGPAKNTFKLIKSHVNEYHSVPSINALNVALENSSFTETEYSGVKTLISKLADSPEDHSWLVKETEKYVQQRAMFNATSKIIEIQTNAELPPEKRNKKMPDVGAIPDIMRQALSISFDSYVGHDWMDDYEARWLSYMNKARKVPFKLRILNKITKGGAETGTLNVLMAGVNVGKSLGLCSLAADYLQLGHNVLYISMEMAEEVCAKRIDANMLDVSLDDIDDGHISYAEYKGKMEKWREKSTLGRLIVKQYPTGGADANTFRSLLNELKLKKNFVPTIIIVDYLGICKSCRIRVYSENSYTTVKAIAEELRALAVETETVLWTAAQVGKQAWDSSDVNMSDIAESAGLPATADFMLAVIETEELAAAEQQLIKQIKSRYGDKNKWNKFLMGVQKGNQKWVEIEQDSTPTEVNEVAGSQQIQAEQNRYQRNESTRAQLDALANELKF

T3: T4 bacteriophage gp41 helicase (T4 bacteriophage, UniProt P04530 1-475)
T3 construct: gp41 helicase of T4 bacteriophage, wild type; NTD (globular subdomain and helical hairpin), linking helix and RecA-like CTD; Hexamer assembled with ATPγS; also called WT gp41 helicase; T4 helicase
T3 sequence (looked up): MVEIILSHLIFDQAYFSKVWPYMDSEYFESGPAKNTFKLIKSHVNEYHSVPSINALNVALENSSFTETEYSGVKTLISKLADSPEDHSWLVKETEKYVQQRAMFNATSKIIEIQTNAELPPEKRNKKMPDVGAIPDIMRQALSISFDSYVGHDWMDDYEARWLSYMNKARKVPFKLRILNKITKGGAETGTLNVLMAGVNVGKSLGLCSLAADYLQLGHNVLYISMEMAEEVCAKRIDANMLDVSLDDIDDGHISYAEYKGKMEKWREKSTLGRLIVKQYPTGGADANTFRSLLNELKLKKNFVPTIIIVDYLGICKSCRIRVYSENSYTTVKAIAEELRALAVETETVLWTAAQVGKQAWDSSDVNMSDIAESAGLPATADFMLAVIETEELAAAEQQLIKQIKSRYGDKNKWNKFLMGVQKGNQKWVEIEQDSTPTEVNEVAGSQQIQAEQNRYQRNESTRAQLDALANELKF

T4: T4 bacteriophage gp41 helicase E227Q (T4 bacteriophage, UniProt P04530 1-475, E227Q)
T4 construct: gp41 helicase of T4 bacteriophage with E227Q in the walker-B motif (no ATP hydrolysis); PDB 8DTP is the wild-type parent; also called gp41(E227Q)
T4 sequence (looked up): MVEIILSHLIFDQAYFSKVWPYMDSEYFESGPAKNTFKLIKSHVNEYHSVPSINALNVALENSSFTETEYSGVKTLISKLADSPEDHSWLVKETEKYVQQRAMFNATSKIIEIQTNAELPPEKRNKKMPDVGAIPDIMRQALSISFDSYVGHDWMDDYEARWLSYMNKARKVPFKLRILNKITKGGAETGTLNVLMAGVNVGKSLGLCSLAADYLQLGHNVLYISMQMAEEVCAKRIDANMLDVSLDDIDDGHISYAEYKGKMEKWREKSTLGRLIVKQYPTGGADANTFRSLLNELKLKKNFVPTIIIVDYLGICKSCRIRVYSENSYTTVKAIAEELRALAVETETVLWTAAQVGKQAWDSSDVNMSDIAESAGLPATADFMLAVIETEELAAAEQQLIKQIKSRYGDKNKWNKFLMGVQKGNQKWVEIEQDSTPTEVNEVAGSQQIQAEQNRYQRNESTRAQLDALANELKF


Legend:
[1] = target: T1, T4 primosome (gp41 helicase-gp61 primase); test: cryo-EM structure; format: binding; details: WT primosome with ssDNA, closed-ring gp41; 5 mM ATPγS, 10 mM MgCl2, pH 7.8; sites on gp41
[2] = target: T2, gp41 helicase; test: cryo-EM structure; format: binding; details: five of six nucleotide sites at CTD-CTD interfaces occupied; 5 mM ATPγS, 10 mM MgCl2, pH 7.8; open spiral without ssDNA (8DUO) or with ssDNA (8DUE), closed ring with ssDNA (8DTP)
[3] = target: T3, T4 bacteriophage gp41 helicase; test: cryo-EM structure; step 3: 6 uM gp41 helicase, 5 mM ATPγS, 12 uM ssDNA/RNA primer substrate and 3 uM gp61 primase; 20 mM HEPES pH 7.8, 100 mM NaCl, 10 mM MgCl2, 2 mM DTT; 30 min at room temperature; details: both partners purified
[4] = target: T4, T4 bacteriophage gp41 helicase E227Q; test: cryo-EM structure; primosome assembled from gp41 E227Q helicase, WT gp61 primase and the ssDNA/RNA primer substrate; helicase and primase regions refined separately; details: both partners purified

| Molecule | cryo-EM structure [1] | cryo-EM structure [2] | stoichiometry N [3] | binding result [4] |
| --- | --- | --- | --- | --- |
| Nc1ncnc2c1ncn2[C@@H]1O[C@H](COP(=O)(O)OP(=O)(O)OP(O)(O)=S)[C@@H](O)[C@H]1O [ATPγS] | observed in the T4 primosome in the presence of ssDNA and ATPγS | five nucleotide binding pockets at the subunit interfaces occupied with ATPγS molecules | – | – |
| T4 bacteriophage gp61 primase (enzyme, UniProt P04520 1-342, looked up, gp61 primase of T4 bacteriophage, wild type; N-terminal ZBD and C-terminal RPD joined by a linker loop (Lys97 to Lys115); the models hold a resolved full-length primase; also called WT gp61 primase; T4 primase) MSSIPWIDNEFAYRALAHLPKFTQVNNSSTFKLRFRCPVCGDSKTDQNKARGWYYGDNNEGNIHCYNCNYHAPIGIYLKEFEPDLYREYIFEIRKEKGKSRPIEKPKELPKQPEKKIIKSLPSCVRLDKLAEDHPIIKYVKARCIPKDKWKYLWFTTEWPKLVNSIAPGTYKKEISEPRLVIPIYNANGKAESFQGRALKKDAPQKYITIEAYPEATKIYGVERVKDGDVYVLEGPIDSLFIENGIAITGGQLDLEVVPFKDRRVWVLDNEPRHPDTIKRMTKLVDAGERVMFWDKSPWKSKDVNDMIRKEGATPEQIMEYMKNNIAQGLMAKMRLSKYAKI | – | – | 1 gp61 primase per gp41 helicase hexamer | binds |
